| melting point | SMILES |
| --- | --- |
| 140 to 143 °C | Cc1ccc(C2CC(C(F)(F)F)=NN2c2ccc(S(N)(=O)=O)cc2)cc1 (centres unmarked) [Example 1] |
| 60 to 66 °C | CC1(c2ccccc2)CC(C(F)(F)F)=NN1c1ccc(S(N)(=O)=O)cc1 (centres unmarked) [Example 2] |
| 140 to 143 °C | Cc1ccc(N2N=C(C(F)(F)F)CC2c2ccc(S(C)(=O)=O)cc2)cc1 (centres unmarked) [Example 4] |
| 156 to 157 °C | NS(=O)(=O)c1ccc(N2N=C(C(F)(F)F)CC2c2ccccc2)cc1 (centres unmarked) [Example 5] |
| 137 to 140 °C | CS(=O)(=O)c1ccc(N2N=C(C(F)(F)F)CC2c2ccccc2)cc1 (centres unmarked) [Example 6] |
| 115 to 119 °C | Cc1ccc(C2CC(C(F)(F)F)=NN2c2ccc(S(C)(=O)=O)cc2)cc1 (centres unmarked) [Example 7] |
| 154 to 156 °C | NS(=O)(=O)c1ccc(N2N=C(C(F)(F)F)CC2c2ccc(F)cc2)cc1 (centres unmarked) [Example 8] |
| 121 to 122 °C | CS(=O)(=O)c1ccc(N2N=C(C(F)(F)F)CC2c2ccc(F)cc2)cc1 (centres unmarked) [Example 9] |
| 153 to 155 °C | NS(=O)(=O)c1ccc(N2N=C(C(F)(F)F)CC2c2ccc(F)c(F)c2)cc1 (centres unmarked) [Example 11] |
| 198 to 200 °C | CS(=O)(=O)c1ccc(N2N=C(C(F)(F)F)CC2c2ccc(Cl)cc2Cl)cc1 (centres unmarked) [Example 12] |
| 143 to 145 °C | NS(=O)(=O)c1ccc(N2N=C(C(F)(F)F)CC2c2ccc(Cl)cc2Cl)cc1 (centres unmarked) [Example 13] |
| 124 to 126 °C | Cc1ccccc1C1CC(C(F)(F)F)=NN1c1ccc(S(N)(=O)=O)cc1 (centres unmarked) [Example 14] |
| 125 to 128 °C | Cc1cccc(C2CC(C(F)(F)F)=NN2c2ccc(S(N)(=O)=O)cc2)c1 (centres unmarked) [Example 15] |
| 166 to 168 °C | NS(=O)(=O)c1ccc(N2N=C(C(F)(F)F)CC2c2ccccc2F)cc1 (centres unmarked) [Example 16] |
| 117 to 121 °C | CS(=O)(=O)c1ccc(N2N=C(C(F)(F)F)CC2c2ccccc2F)cc1 (centres unmarked) [Example 17] |
| 132 to 133 °C | NS(=O)(=O)c1ccc(N2N=C(C(F)(F)F)CC2c2cccc(F)c2)cc1 (centres unmarked) [Example 18] |
| 149 to 151 °C | CS(=O)(=O)c1ccc(N2N=C(C(F)(F)F)CC2c2cccc(F)c2)cc1 (centres unmarked) [Example 19] |
| 125 to 128 °C | COc1ccc(C2CC(C(F)(F)F)=NN2c2ccc(S(N)(=O)=O)cc2)cc1 (centres unmarked) [Example 20] |
| 171 to 173 °C | NS(=O)(=O)c1ccc(N2N=C(C(F)(F)F)CC2c2ccc(F)c(Cl)c2)cc1 (centres unmarked) [Example 21] |

| melting point | SMILES |
| --- | --- |
| 134 to 137 °C | NS(=O)(=O)c1ccc(N2N=C(C(F)(F)F)CC2c2ccc(OC(F)(F)F)cc2)cc1 (centres unmarked) [Example 22] |
| 152 to 154 °C | NS(=O)(=O)c1ccc(N2N=C(C(F)(F)F)CC2c2cccc(F)c2F)cc1 (centres unmarked) [Example 23] |
| 158 to 160 °C | Cc1ccc(C2CC(C(F)(F)F)=NN2c2ccc(S(N)(=O)=O)cc2)c(C)c1 (centres unmarked) [Example 24] |
| 132 to 135 °C | CS(=O)(=O)c1ccc(N2N=C(C(F)(F)F)CC2c2ccc(F)c(F)c2)cc1 (centres unmarked) [Example 25] |
| 206 to 208 °C | CC1=NN(c2ccc(S(N)(=O)=O)cc2)C(c2ccc(F)cc2)C1 (centres unmarked) [Example 26] |
| 120 to 123 °C | CC1=NN(c2ccc(S(C)(=O)=O)cc2)C(c2ccc(F)cc2)C1 (centres unmarked) [Example 27] |
| 195 to 197 °C | CC1=NN(c2ccc(S(N)(=O)=O)cc2)C(c2ccc(C)cc2)C1 (centres unmarked) [Example 28] |
| 113 to 117 °C | CC1=NN(c2ccc(S(C)(=O)=O)cc2)C(c2ccc(C)cc2)C1 (centres unmarked) [Example 29] |
| 190 to 194 °C | CC1=NN(c2ccc(S(N)(=O)=O)cc2)C(c2ccc(C(F)(F)F)cc2)C1 (centres unmarked) [Example 30] |
| 206 to 208 °C | NS(=O)(=O)c1ccc(N2N=CCC2c2ccccc2)cc1 (centres unmarked) [Example 31] |
| 197 to 202 °C | CS(=O)(=O)c1ccc(N2N=CCC2c2ccccc2)cc1 (centres unmarked) [Example 32] |
| 136 to 138 °C | CC1=NN(c2ccc(S(C)(=O)=O)cc2)C(c2ccc(C(F)(F)F)cc2)C1 (centres unmarked) [Example 33] |
| 172 to 176 °C | Cc1ccc(C2CC(C(=O)O)=NN2c2ccc(S(N)(=O)=O)cc2)cc1 (centres unmarked) [Example 34] |
| 157 to 164 °C | NS(=O)(=O)c1ccc(N2N=C(C(=O)O)CC2c2ccccc2)cc1 (centres unmarked) [Example 35] |
| 202 to 205 °C | Cc1ccc(C2CC(C(=O)O)=NN2c2ccc(S(C)(=O)=O)cc2)cc1 (centres unmarked) [Example 36] |
| 192 to 197 °C | COC(=O)C1=NN(c2ccc(S(N)(=O)=O)cc2)C(c2ccc(C)cc2)C1 (centres unmarked) [Example 37] |
| 84 to 90 °C | COC(=O)C1=NN(c2ccc(S(N)(=O)=O)cc2)C(c2ccccc2)C1 (centres unmarked) [Example 38] |
| 155 to 160 °C | COC(=O)C1=NN(c2ccc(S(C)(=O)=O)cc2)C(c2ccc(C)cc2)C1 (centres unmarked) [Example 39] |
| 200 to 205 °C | NC(=O)C1=NN(c2ccc(S(N)(=O)=O)cc2)C(c2ccccc2)C1 (centres unmarked) [Example 40] |

| melting point | SMILES |
| --- | --- |
| 210 to 215 °C | Cc1ccc(C2CC(C(N)=O)=NN2c2ccc(S(N)(=O)=O)cc2)cc1 (centres unmarked) [Example 41] |
| 128 to 132 °C | Cc1ccc(C2CC(C(N)=O)=NN2c2ccc(S(C)(=O)=O)cc2)cc1 (centres unmarked) [Example 42] |
| 162 to 164 °C | Cc1ccc(C2CC(C#N)=NN2c2ccc(S(C)(=O)=O)cc2)cc1 (centres unmarked) [Example 43] |
| 152 to 155 °C | Cc1ccc(C2CC(C(F)(F)F)=NN2c2ccc(S(N)(=O)=O)cc2)cc1C (centres unmarked) [Example 44] |
| 170 to 175 °C | COc1ccc(C2CC(C(F)(F)F)=NN2c2ccc(S(N)(=O)=O)cc2)cc1C (centres unmarked) [Example 45] |
| 108 to 114 °C | COc1ccc(C2CC(C(F)(F)F)=NN2c2ccc(S(N)(=O)=O)cc2)cc1F (centres unmarked) [Example 46] |
| 157 to 159 °C | COc1ccc(C2CC(C(F)(F)F)=NN2c2ccc(S(N)(=O)=O)cc2)c(F)c1 (centres unmarked) [Example 47] |
| 121 to 126 °C | COc1ccc(C2CC(C(F)(F)F)=NN2c2ccc(S(N)(=O)=O)cc2)c(OC)c1 (centres unmarked) [Example 48] |
| 179 to 182 °C | COc1cc(F)ccc1C1CC(C(F)(F)F)=NN1c1ccc(S(N)(=O)=O)cc1 (centres unmarked) [Example 49] |
| 181 to 183 °C | Cc1ccc(C2CC(C(F)F)=NN2c2ccc(S(N)(=O)=O)cc2)c(C)c1 (centres unmarked) [Example 50] |
| 159 to 161 °C | NS(=O)(=O)c1ccc(N2N=C(C(F)(F)F)CC2c2ccc(F)c(F)c2F)cc1 (centres unmarked) [Example 51] |
| 167 to 169 °C | NS(=O)(=O)c1ccc(N2N=C(C(F)(F)F)CC2c2ccc(F)cc2Cl)cc1 (centres unmarked) [Example 52] |
| 170 to 173 °C | NS(=O)(=O)c1ccc(N2N=C(C(F)(F)F)CC2c2ccc(C(F)(F)F)cc2F)cc1 (centres unmarked) [Example 53] |
| 212 to 214 °C | NS(=O)(=O)c1ccc(N2N=C(C(F)(F)F)CC2c2ccc(C(F)(F)F)cc2C(F)(F)F)cc1 (centres unmarked) [Example 54] |
| 193 to 195 °C | Cc1c(F)cccc1C1CC(C(F)(F)F)=NN1c1ccc(S(N)(=O)=O)cc1 (centres unmarked) [Example 55] |
| 148 to 150 °C | COc1ccc(C2CC(C(F)(F)F)=NN2c2ccc(S(N)(=O)=O)cc2)c(C)c1 (centres unmarked) [Example 56] |
| 157 to 160 °C | NS(=O)(=O)c1ccc(N2N=C(C(F)F)CC2c2ccc(F)cc2F)cc1 (centres unmarked) [Example 57] |
| 174 to 177 °C | NS(=O)(=O)c1ccc(N2N=C(C(F)(F)F)CC2c2ccc(F)cc2C(F)(F)F)cc1 (centres unmarked) [Example 58] |

From patent publication US20040034082A1, “Utilization of pyrazoline derivatives in the preparation of a medicament for the prevention and/or treatment of proliferative cell diseases” (priority 2001, published 2004)
